Results as given in patent publication US11312719B2, “9-substituted amino triazolo quinazoline derivatives as adenosine receptor antagonists, pharmaceutical compositions and their use” (Merck Sharp & Dohme Corp., priority 2018, dated 2022).

Legend:
human A2A receptors = human A2A receptors (Homo sapiens (Human), UniProt P29274); test: A2A antagonism in cAMP cell-based assay (LANCE cAMP, HEK293); conditions: HEK293 cells expressing human A2A receptor
How it was run: (§1)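 HEK293 cells expressing human A2A or A2B, in HBSS/5 mM HEPES/200 nM rolipram, were preincubated with compound (0.5–10,000 nM, 0.25% DMSO) 30 min at 37° C. Adenosine was then added from 300 nM (A2A) or 600 nM (A2B) solution for 30 min.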

human A2B receptors = human A2B receptors (Homo sapiens (Human), UniProt P29275); test: A2B antagonism in cAMP cell-based assay (LANCE cAMP, HEK293); conditions: HEK293 cells expressing human A2B receptor
How it was run: as §1

Chain of human A2A receptors (P29274 whole entry): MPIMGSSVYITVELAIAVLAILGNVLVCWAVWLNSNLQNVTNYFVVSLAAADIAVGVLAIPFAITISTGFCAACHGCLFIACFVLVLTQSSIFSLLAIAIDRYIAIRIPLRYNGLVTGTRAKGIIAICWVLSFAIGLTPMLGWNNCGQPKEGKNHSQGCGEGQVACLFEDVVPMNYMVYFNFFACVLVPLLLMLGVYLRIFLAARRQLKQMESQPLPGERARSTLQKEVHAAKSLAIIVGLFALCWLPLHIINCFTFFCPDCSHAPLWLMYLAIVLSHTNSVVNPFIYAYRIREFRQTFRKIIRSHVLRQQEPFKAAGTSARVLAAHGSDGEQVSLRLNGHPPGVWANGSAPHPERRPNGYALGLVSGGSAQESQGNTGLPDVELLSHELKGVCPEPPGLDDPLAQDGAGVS
Chain of human A2B receptors (P29275 whole entry): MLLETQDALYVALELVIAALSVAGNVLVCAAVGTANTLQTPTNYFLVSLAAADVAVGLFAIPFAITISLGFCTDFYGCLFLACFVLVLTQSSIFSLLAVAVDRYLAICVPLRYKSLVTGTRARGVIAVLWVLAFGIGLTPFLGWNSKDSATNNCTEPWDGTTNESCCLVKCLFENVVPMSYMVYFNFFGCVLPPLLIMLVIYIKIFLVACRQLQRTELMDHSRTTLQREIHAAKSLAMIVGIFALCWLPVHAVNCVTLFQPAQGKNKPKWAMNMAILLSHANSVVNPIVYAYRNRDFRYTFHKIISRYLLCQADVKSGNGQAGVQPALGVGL

| Molecule | IC50 (human A2A receptors) | IC50 (human A2B receptors) |
| --- | --- | --- |
| COc1cc2nc(N)n3nc(C4CCC(C)N(c5cnn(C(C)(C)C(C)O)c5)C4)nc3c2cc1F (single isomer, unassigned) [Example 265, (S or R)-3-(4-((2S,5R or 2R,5S)-5-(5-amino-9-fluoro-8-methoxy-[1,2,4]triazolo[1,5-c]quinazolin-2-yl)-2-methylpiperidin-1-yl)-1H-pyrazol-1-yl)-3-methylbutan-2-ol] | 1.3 nM | 4.5 nM |
| COc1cc2nc(N)n3nc(C4CCC(C)N(c5cnn(C(C)(C)C(C)O)c5)C4)nc3c2cc1F (single isomer, unassigned) [Example 266, (R or S)-3-(4-((2R,5S or 2S,5R)-5-(5-amino-9-fluoro-8-methoxy-[1,2,4]triazolo[1,5-c]quinazolin-2-yl)-2-methylpiperidin-1-yl)-1H-pyrazol-1-yl)-3-methylbutan-2-ol] | 64.2 nM | 580 nM |
| COc1cc2nc(N)n3nc(C4CCC(C)N(c5cnn(C(C)(C)C(C)O)c5)C4)nc3c2cc1F (single isomer, unassigned) [Example 267, (S or R)-3-(4-((2R,5S or 2S,5R)-5-(5-amino-9-fluoro-8-methoxy-[1,2,4]triazolo[1,5-c]quinazolin-2-yl)-2-methylpiperidin-1-yl)-1H-pyrazol-1-yl)-3-methylbutan-2-ol] | 175 nM | 1210 nM |
| COc1cc(F)cc2c1nc(N)n1nc(C3CCC(C)N(c4cnn(C(C)(C)C(C)O)c4)C3)nc21 (single isomer, unassigned) [Example 268, (R or S)-3-(4-((2S,5R or 2R,5S)-5-(5-amino-9-fluoro-7-methoxy-[1,2,4]triazolo[1,5-c]quinazolin-2-yl)-2-methylpiperidin-1-yl)-1H-pyrazol-1-yl)-3-methylbutan-2-ol] | 0.7 nM | 4.7 nM |
| COc1cc(F)cc2c1nc(N)n1nc(C3CCC(C)N(c4cnn(C(C)(C)C(C)O)c4)C3)nc21 (single isomer, unassigned) [Example 269, (S or R)-3-(4-((2S,5R or 2R,5S)-5-(5-amino-9-fluoro-7-methoxy-[1,2,4]triazolo[1,5-c]quinazolin-2-yl)-2-methylpiperidin-1-yl)-1H-pyrazol-1-yl)-3-methylbutan-2-ol] | 1.2 nM | 6.4 nM |
| COc1cc(F)cc2c1nc(N)n1nc(C3CCC(C)N(c4cnn(C(C)(C)C(C)O)c4)C3)nc21 (single isomer, unassigned) [Example 270, (R or S)-3-(4-((2R,5S or 2S,5R)-5-(5-amino-9-fluoro-7-methoxy-[1,2,4]triazolo[1,5-c]quinazolin-2-yl)-2-methylpiperidin-1-yl)-1H-pyrazol-1-yl)-3-methylbutan-2-ol] | 5.2 nM | 30.3 nM |
| COc1cc(F)cc2c1nc(N)n1nc(C3CCC(C)N(c4cnn(C(C)(C)C(C)O)c4)C3)nc21 (single isomer, unassigned) [Example 271, (S or R)-3-(4-((2R,5S or 2S,5R)-5-(5-amino-9-fluoro-7-methoxy-[1,2,4]triazolo[1,5-c]quinazolin-2-yl)-2-methylpiperidin-1-yl)-1H-pyrazol-1-yl)-3-methylbutan-2-ol] | 21.4 nM | 242 nM |
| COc1cc2nc(N)n3nc(C4CCC(C)N(c5cnn(CC6(O)CC6)c5)C4)nc3c2cc1F (single isomer, unassigned) [Example 272, 1-((4-((2S,5R or 2R,5S)-5-(5-amino-9-fluoro-8-methoxy-[1,2,4]triazolo[1,5-c]quinazolin-2-yl)-2-methylpiperidin-1-yl)-1H-pyrazol-1-yl)methyl)cyclopropan-1-ol] | 43.6 nM | 5800 nM |
| COc1cc2nc(N)n3nc(C4CCC(C)N(c5cnn(CC6(O)CC6)c5)C4)nc3c2cc1F (single isomer, unassigned) [Example 273, 1-((4-((2R,5S or 2S,5R)-5-(5-amino-9-fluoro-8-methoxy-[1,2,4]triazolo[1,5-c]quinazolin-2-yl)-2-methylpiperidin-1-yl)-1H-pyrazol-1-yl)methyl)cyclopropan-1-ol] | 1.2 nM | 26.7 nM |
| COc1cc2nc(N)n3nc(C4CC(C)CN(c5cnn(CC(C)(C)O)c5C)C4)nc3c2cc1F (single isomer, unassigned) [Example 274, 1-((4-((3R,5S or 3S,5R)-5-(5-amino-9-fluoro-8-methoxy-[1,2,4]triazolo[1,5-c]quinazolin-2-yl)-5-methylpiperidin-1-yl)-5-methyl-1H-pyrazol-1-yl)-2-methylpropan-2-ol] | 0.7 nM | 70.5 nM |
| COc1cc2nc(N)n3nc(C4CC(C)CN(c5cnn(CC(C)(C)O)c5C)C4)nc3c2cc1F (single isomer, unassigned) [Example 275, 1-((4-((3S,5R or 3R,5S)-5-(5-amino-9-fluoro-8-methoxy-[1,2,4]triazolo[1,5-c]quinazolin-2-yl)-5-methylpiperidin-1-yl)-5-methyl-1H-pyrazol-1-yl)-2-methylpropan-2-ol] | 15.6 nM | 2470 nM |
| COc1cc2nc(N)n3nc([C@@H]4CCCN(c5cnn(C(C)(C)CO)c5)C4)nc3c2cc1F [Example 151, (R)-2-(4-(3-(5-amino-9-fluoro-8-methoxy-[1,2,4]triazolo[1,5-c]quinazolin-2-yl)piperidin-1-yl)-1H-pyrazol-1-yl)-2-methylpropan-1-ol] | 3.8 nM | 56.9 nM |
| COc1cc2nc(N)n3nc([C@@H]4CCCN(c5cnn(CCC(C)(C)O)c5)C4)nc3c2cc1F [Example 152, (R)-4-(4-(3-(5-amino-9-fluoro-8-methoxy-[1,2,4]triazolo[1,5-c]quinazolin-2-yl)piperidin-1-yl)-1H-pyrazol-1-yl)-2-methylbutan-2-ol] | 5.9 nM | 371 nM |
| CC(C)(O)Cn1cc(N2CCC[C@@H](c3nc4c5cc(F)c(OC(F)F)cc5nc(N)n4n3)C2)cn1 [Example 153, (R)-1-(4-(3-(5-amino-8-(difluoromethoxy)-9-fluoro-[1,2,4]triazolo[l,5-c]quinazolin-2-yl)piperidin-l-yl)-1H-pyrazol-1-yl)-2-methylpropan-2-ol] | 7.4 nM | 720 nM |
| Cc1nn(CC(C)(C)O)cc1N1CCC[C@@H](c2nc3c4cc(F)c(OC(F)F)cc4nc(N)n3n2)C1 [Example 154, (R)-1-(4-(3-(5-amino-8-(difluoromethoxy)-9-fluoro-[1,2,4]triazolo[l,5-c]quinazolin-2-yl)piperidin-l-yl)-3-methyl-1H-pyrazol-1-yl)-2-methylpropan-2-ol] | 1.2 nM | 974 nM |
| (R or S)-1-(4-((2S,5R or 2R5S)-5-(5-amino-9-fluoro- 8-methoxy-[1,2,4]triazolo[1,5-c]quinazolin-2-yl)-2- methylpiperidin-1-yl)-1H-pyrazol-1-yl)propan-2-ol [Example 240] | 1.2 nM | 22.6 nM |
| (S or R)-1-(4-((2S,5R or 2R5S)-5-(5-amino-9-fluoro- 8-methoxy-[1,2,4]triazolo[1,5-c]quinazolin-2-yl)-2- methylpiperidin-1-yl)-1H-pyrazol-1-yl)propan-2-ol [Example 241] | 1.3 nM | 21.7 nM |
